The values that follow come from US20230286943A1, “IL-17A MODULATORS” (SANOFI, priority 2020, published 2023).

Marks after values point to notes of the source that are not given here.

The first assay deals with human recombinant IL-17A (Homo sapiens (Human), UniProt Q16552). In words: IL-17A AlphaLISA Assay (competition: block binding of IL-17A to its receptor IL-17RA). Conditions: compounds pre-incubated with IL-17A for 30 min (indicated by *). The protocol: The ability of the compounds to block binding of IL-17A to its receptor, IL-17RA, was analysed in a competition assay using AlphaLISA technology (Perkin Elmer). The assay is a bead based AlphaLISA where the IL-17RA is captured on the acceptor bead via an Fc tag and IL-17A is captured on the streptavidin donor bead via a biotinylated anti-IL-17A antibody.
Chain of human recombinant IL-17A (Q16552 24-155): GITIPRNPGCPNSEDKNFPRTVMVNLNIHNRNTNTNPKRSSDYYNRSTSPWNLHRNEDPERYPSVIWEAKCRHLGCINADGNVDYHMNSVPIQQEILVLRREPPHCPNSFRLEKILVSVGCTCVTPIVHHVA
Assay buffer was prepared by adding 0.05% Tween-20 (v/v) and 0.1% BSA to Phosphate Buffered Saline (PBS). The assay was carried out in 384-well white low volume plates (Corning 4512). 10 μL of a 7.5 nM stock of human recombinant IL-17A (R&D Systems 7955-IL/CF) diluted in assay buffer was dispensed into the assay plate and compounds or DMSO vehicle control were added in a volume of 75 nL using a D300 dispenser (Hewlett Packard). The compounds were pre-incubated with the IL-17A for 24 h at room temperature (or for 30 min, where indicated by * in Table A below) prior to addition of 5 μL of a 5 nM stock of human recombinant IL-17RA/Fc chimera (R&D Systems 177-IR-100) diluted in assay buffer. The IL-17A was incubated with the receptor for a further 90 minutes at room temperature before addition of 5 μL of a mixture of anti-human Fc IgG acceptor beads (75 μg/mL, Perkin Elmer AL103C) and anti-IL-17A biotin conjugated antibody (5 nM, Enzo Life Sciences, ENZ-ABS278-0100) in assay buffer. After a further 30 min incubation at room temperature, 5 μL of streptavidin donor beads (75 μg/mL, Perkin Elmer 6760002S) were added and the plate was incubated for 3 h in the dark.
The luminescence signal was measured using an Enspire plate reader (Perkin Elmer) with excitation at 680 nm and emission at 615 nm. Data were analysed using GraphPad Prism and fitted to a 4-parameter logistic equation. The IC50 values were calculated using the DMSO vehicle as the negative control and a high concentration (6 μM) of a reference IL-17A inhibitor as the positive control.
Activity of the Example compounds is reported as a pIC50 value in Table A.
(Alpha assays give light when donor and acceptor beads are brought close together.)
In the case of `CCn1nccc1C(=O)N[C@H](C(=O)Nc1cnc(-c2c(C)cnn2C)c(F)c1)[C@H]1CC[C@H](C)CC1` [Example 108, N-((S)-2-((6-(1,4-dimethyl-1H-pyrazol-5-yl)-5-fluoropyridin-3-yl)amino)-1-((1 r,4S)-4-methylcyclohexyl)-2-oxoethyl)-1-ethyl-1H-pyrazole-5-carboxamide], the “AlphaLISA pIC50” value is 6.8*.

As to `Cc1cnn(C)c1-c1ncc(NC(=O)[C@@H](NC(=O)c2ccnn2C)[C@H]2CC[C@H](C)CC2)cc1F` [Example 98, N-((S)-2-((6-(1,4-dimethyl-1H-pyrazol-5-yl)-5-fluoropyridin-3-yl)amino)-1-((1 r,4S)-4-methylcyclohexyl)-2-oxoethyl)-1-methyl-1H-pyrazole-5-carboxamide], the “AlphaLISA pIC50” value was 6.3*.

For the molecule `Cc1nnn(C)c1-c1ccc(NC(=O)[C@@H](NC(=O)c2ccnn2C)[C@H]2CC[C@H](C)CC2)nc1` [Example 44, N-((S)-2-((5-(1,4-Dimethyl-1H-1,2,3-triazol-5-yl)pyridin-2-yl)amino)-1-((1r,4S)-4-methylcyclohexyl)-2-oxoethyl)-1-methyl-1H-pyrazole-5-carboxamide], the “AlphaLISA pIC50” value is given as 6.8*.

Turning to `Cc1c(-c2ccc(NC(=O)[C@@H](NC(=O)c3ccnn3C)C3CCC(F)(F)CC3)cc2)ccc(=O)n1C` [Example 20, (S)-N-(1-(4,4-Difluorocyclohexyl)-2-((4-(1,2-dimethyl-6-oxo-1,6-dihydropyridin-3-yl)phenyl)amino)-2-oxoethyl)-1-methyl-1H-pyrazole-5-carboxamide], the “AlphaLISA pIC50” value is on record as 6.0*.

With `Cc1c(-c2ccc(NC(=O)[C@@H](NC(=O)c3ccnn3C)C3CCC(C)(C)CC3)cc2)ccc(=O)n1C` [Example 21, (S)-N-(2-((4-(1,2-Dimethyl-6-oxo-1,6-dihydropyridin-3-yl)phenyl)amino)-1-(4,4-dimethylcyclohexyl)-2-oxoethyl)-1-methyl-1H-pyrazole-5-carboxamide], the “AlphaLISA pIC50” value is reported as 6.0*.

With `Cc1nsc(C)c1-c1ccc(NC(=O)[C@@H](NC(=O)c2cnnn2C)[C@H]2CC[C@H](C)CC2)nc1` [Example 116, N-((S)-2-((5-(3,5-dimethylisothiazol-4-yl)pyridin-2-yl)amino)-1-((1r,4S)-4-methylcyclohexyl)-2-oxoethyl)-1-methyl-1H-1,2,3-triazole-5-carboxamide], the “AlphaLISA pIC50” value is recorded as 6.0*.

In the case of `CCn1nccc1C(=O)N[C@H](C(=O)Nc1ccc(-c2c(C)c[n+]([O-])cc2C)cn1)[C@H]1CC[C@H](C)CC1` [Example 58, 6-((S)-2-(1-Ethyl-1H-pyrazole-5-carboxamido)-2-((1 r,4S)-4-methylcyclohexyl)acetamido)-3′,5′-dimethyl-[3,4′-bipyridine]1′-oxide], the “AlphaLISA pIC50” value is given as 6.9*.

As for `Cc1cnn(C)c1-c1ccc(NC(=O)[C@@H](NC(=O)c2ccnn2C)C2CCCC2)nc1` [Example 102, (S)-N-(1-cyclopentyl-2-((5-(1,4-dimethyl-1H-pyrazol-5-yl)pyridin-2-yl)amino)-2-oxoethyl)-1-methyl-1H-pyrazole-5-carboxamide], the “AlphaLISA pIC50” value is 6.1*.

On to `COc1c(-c2ccc(NC(=O)[C@@H](NC(=O)c3ccnn3C)[C@H]3CC[C@H](C)CC3)nc2)ccnc1C` [Example 70, N-((S)-2-((3′-methoxy-2′-methyl-[3,4′-bipyridin]-6-yl)amino)-1-((1r,4S)-4-methylcyclohexyl)-2-oxoethyl)-1-methyl-1H-pyrazole-5-carboxamide], for which the “AlphaLISA pIC50” value is listed as 6.1*.

The same assay, now with this note: compounds pre-incubated with IL-17A for 24 h at room temperature.
Take `Cc1c(-c2ccc(NC(=O)[C@@H](NC(=O)c3ccnn3C)[C@H]3CC[C@H](C)CC3)nc2)ccc(=O)n1C` [Example 8, N-((S)-2-((1′,2′-Dimethyl-6′-oxo-1′,6′-dihydro-[3,3′-bipyridin]-6-yl)amino)-1-((1 r,4S)-4-methylcyclohexyl)-2-oxoethyl)-1-methyl-1H-pyrazole-5-carboxamide]: the “AlphaLISA pIC50” value is on record as 6.0.
